{"source": "patent US5686448A", "about": "(priority 1995, dated 1997)", "key": {"HSV-1 (McKrae strain)": {"test_system": "HSV-1 (McKrae strain)", "conditions": "for cells exhibiting CPE, area of infection per field: 20 mg/ml"}, "[1]": {"test_system": "RK-13, Vero and WISH cells"}, "cell-free HSV virus": {"test_system": "cell-free HSV virus", "conditions": "20 mg/ml", "protocol": "Both mixtures were maintained at 4° C. for 30 minutes, 60 minutes, or 90 minutes. 0.3 ml of the solutions were plated onto susceptible cell cultures and incubated at 37° C. for 36 hours. All cultures were stained and compared to the virus control."}, "HSV-1 (F strain)": {"test_system": "HSV-1 (F strain)", "protocol": "In Series No. 1 of Example No. 1, monolayer cultures of Vero, RK-13 (rabbit kidney), and WISH (human amnion, Hayflick) cells were used in the experiments of Example No. 1. The cells were grown in Basal Minimal Eagle's Media supplemented with 5% fetal calf serum, 1% glutamine, sodium bicarbonate and antibiotics. Cultures were maintained in a maintenance media that was the same media, except that the maintenance media contained 2% fetal calf serum. An F Strain of HSV-1 was chosen because it is a well-known prototype of HSV-1. This F Strain can be obtained from the American Type Culture Collection (ATCC), 12301 Parklawn Drive, Rockville, Md. 20852, at which it is identified as ATC-VR 733. For studies with HSV-2, a G strain of HSV-2 (ATCC-VR 734) and a 333 strain of HSV-2 were selected. These strains also can be obtained from the ATCC.\nTwo methods were used to test the drug's effectiveness in the suppression of viral growth. In the pre-inoculation experiments, the drug was added after adsorption of the virus. In the pre-incubation experiments, the drug was added prior to infection of the cell cultures.\nAccordingly, the pre-inoculation experiments measured the effect of the drug on a cell that was already infected with the virus. The pre-incubation experiments measured the cell cultures that were treated with the drug prior to the inoculation to determine if these cells then would be permissive or non-permissive to the tested virus. In these experiments, plaque reduction assays provided a quantitative measure of antiviral activity and was deemed to be reliable and objective.\nIn the pre-incubation experiments, the media was either decanted or gently aspirated from the cultures. After decanting or aspirating, 1 ml of the drug dilution plus maintenance media was added to the cultures. The cultures that served as virus controls or cell controls received 2 ml of maintenance media. After the pre-treatment period, the media was again aspirated and the cell cultures were infected with the virus.\nWhen this occurred, the cultures were fixed and stained with crystal violet. The plaque were then carefully counted under the microscope. By such a counting and careful comparison, percentages of plaque inhibition in the treated cultures were then calculated.\nThese duplicate wells were incubated for 3 hours. After this time, the maintenance media was aspirated and the cultures were infected. Fresh maintenance media was then added."}, "[2]": {"conditions": "Exp. 1E, 4 hours pre-incubation, 100 mg/culture"}, "[3]": {"conditions": "Exp. 1E, 7 hours pre-incubation, 100 mg/culture"}}, "note": "Like-named read-outs stand apart in the source and are kept apart here.", "data": [{"smiles": "CC[N+](CC)(CC)CC.[Cl-]", "note": "[TEAC, tetraethylammonium chloride]", "values": [{"measurement": "cells exhibiting CPE, area of infection per field", "setting": "HSV-1 (McKrae strain); 6 hours P.I., virus control 1/4", "result": "1/6"}, {"measurement": "cells exhibiting CPE, area of infection per field", "setting": "HSV-1 (McKrae strain); 30 hours P.I., virus control 1/2", "result": "scattered"}, {"measurement": "No. of cells with virus particles", "setting": "HSV-1 (McKrae strain); 6 hours P.I., 100 cells examined, control 0", "result": 0}, {"measurement": "No. of cells with internuclear dense bodies", "setting": "HSV-1 (McKrae strain); 6 hours P.I., 100 cells examined, control 14", "result": 12}, {"measurement": "Total %", "setting": "HSV-1 (McKrae strain); 6 hours P.I., 100 cells examined, control 14%", "result": 12, "unit": "%"}, {"measurement": "cell membrane appearance", "setting": "HSV-1 (McKrae strain); 6 hours post infection", "result": "unusually extended and wavy"}, {"measurement": "No. of cells with internuclear dense bodies", "setting": "HSV-1 (McKrae strain); 24 hours P.I., 300 cells examined, control 0 of 50", "result": 12}, {"measurement": "No. of cells with virus particles", "setting": "HSV-1 (McKrae strain); 24 hours P.I., 300 cells examined, control 50 of 50", "result": 8}, {"measurement": "Total %", "setting": "HSV-1 (McKrae strain); 24 hours P.I., 300 cells examined, control 100%", "result": 6, "unit": "%"}, {"measurement": "nucleocapsid size", "setting": "HSV-1 (McKrae strain); 24 hours post infection", "result": "about 99.6 A"}, {"measurement": "nucleocapsids in cytoplasm", "setting": "HSV-1 (McKrae strain); 24 hours post infection", "result": "coreless nucleocapsids in paracrystalline arrays"}, {"measurement": "virus particles in inter-cellular space", "setting": "HSV-1 (McKrae strain); 24 hours post infection", "result": "some abnormal virus particles were detected"}, {"measurement": "reversibility of toxicity (thin) / morphology changes", "setting": "[1]; drug removed, fresh media added", "result": "totally reversible"}, {"measurement": "change in morphology or cytopathic effect", "setting": "[1]; one to seven hours exposure", "result": "No change in morphology or cytopathic effect"}, {"measurement": "rate of growth vs cultures without TEAC", "setting": "[1]; one to seven hours exposure", "result": "no difference in the rate of growth"}, {"measurement": "toxicity to cells", "setting": "[1]; one to seven hours exposure", "result": "not toxic to cells"}, {"measurement": "inactivation of cell-free virus", "setting": "cell-free HSV virus", "result": "does not inactivate the virus"}, {"measurement": "% plaque inhibition", "setting": "HSV-1 (F strain); Exp. 1D, 3 hours before infection, 12.5 mg/culture", "result": 80, "unit": "%"}, {"measurement": "% plaque inhibition", "setting": "HSV-1 (F strain); Exp. 1D, 3 hours before infection, 25.0 mg/culture", "result": 79, "unit": "%"}, {"measurement": "% plaque inhibition", "setting": "HSV-1 (F strain); Exp. 1D, 3 hours before infection, 50.0 mg/culture", "result": 82, "unit": "%"}, {"measurement": "% plaque inhibition", "setting": "HSV-1 (F strain); Exp. 1D, 3 hours before infection, 100.0 mg/culture", "result": 79, "unit": "%"}, {"measurement": "% plaque inhibition", "setting": "HSV-1 (F strain); Exp. 1E, 2 hours pre-incubation, 12.5 mg/culture", "result": 18, "unit": "%"}, {"measurement": "% plaque inhibition", "setting": "HSV-1 (F strain); Exp. 1E, 2 hours pre-incubation, 25 mg/culture", "result": 17, "unit": "%"}, {"measurement": "% plaque inhibition", "setting": "HSV-1 (F strain); Exp. 1E, 2 hours pre-incubation, 50 mg/culture", "result": 24, "unit": "%"}, {"measurement": "% plaque inhibition", "setting": "HSV-1 (F strain); Exp. 1E, 2 hours pre-incubation, 100 mg/culture", "result": 68, "unit": "%"}, {"measurement": "% plaque inhibition", "setting": "HSV-1 (F strain); Exp. 1E, 4 hours pre-incubation, 12.5 mg/culture", "result": "less than 20%"}, {"measurement": "% plaque inhibition", "setting": "HSV-1 (F strain); Exp. 1E, 4 hours pre-incubation, 50 mg/culture", "result": 63, "unit": "%"}, {"measurement": "% plaque inhibition", "setting": "HSV-1 (F strain); [2]", "result": 100, "unit": "%"}, {"measurement": "cell layer appearance (thin)", "setting": "HSV-1 (F strain); [2]", "result": "thin"}, {"measurement": "% plaque inhibition", "setting": "HSV-1 (F strain); Exp. 1E, 7 hours pre-incubation, 12.5 mg/culture", "result": 76, "unit": "%"}, {"measurement": "% plaque inhibition", "setting": "HSV-1 (F strain); [3]", "result": 100, "unit": "%"}, {"measurement": "cell layer appearance (thin)", "setting": "HSV-1 (F strain); [3]", "result": "thin"}, {"measurement": "permissiveness of cells to virus", "setting": "HSV-1 (F strain); added before viral inoculation, summary", "result": "rendered the cells non-permissive to the virus and no plaque formed"}]}]}
